# Where “and” joins values, the source holds several entries; their conditions need not be identical. Equal entries are not always repeated. Where two headings read alike, the source gives them in different places.
# Test system: TNBC
SMILES,median calibrated efficacy rate α of the drug,"median calibrated efficacy rate α of the drug (good-response patient (100% shrinkage of tumor volume at completion of A/C), Framework 1) [day⁻¹]","median calibrated efficacy rate α of the drug (poor-response patient (33% shrinkage of tumor volume at completion of A/C), Framework 1) [day⁻¹]"
O=P1(N(CCCl)CCCl)NCCCO1 (stereo not drawn) [cyclophosphamide],0.60 day⁻¹ and 0.34 day⁻¹,–,–
COc1cccc2c1C(=O)c1c(O)c3c(c(O)c1C2=O)C[C@@](O)(C(=O)CO)C[C@@H]3O[C@H]1C[C@H](N)[C@H](O)[C@H](C)O1 [doxorubicin],–,0.47,0.24

# Reference: patent US20250302394A1, “QUANTITATIVE MAGNETIC RESONANCE IMAGING AND TUMOR FORECASTING” (priority 2021, published 2025)
